Results published in paper PMC7190722, “Brain distribution of geissoschizine methyl ether in rats using mass spectrometry imaging analysis” (Scientific Reports, 2020).
Where “and” joins values, the source holds several entries; their conditions need not be identical. Identical values can stand only once.

Key:
[1] = set-up: method as in PMID 23813572, PMID 30741064; conditions: plasma and brain, after oral YKS administration to rats; cited from earlier work
[2] = Brain distribution by MALDI-MSI analysis after intravenous GM injection; type: in vivo, rat; conditions: 0.25 h after 5 mg/kg GM i.v., sagittal sections
Method: GM (5 mg/kg) or vehicle (70% DMSO; 0.6 mL/kg) was injected into the tail vein of rats fasted for approximately 16 h. […] Blood samples were centrifuged at 1,700 × g and 4 °C for 15 min to obtain the plasma. The brain of each animal was immediately removed and weighed after blood collection and frozen with liquid nitrogen.
The frozen brains were used for making serial sagittal thin sliced sections (thickness 25 μm, coordinate: approximately 3.4 mm lateral from the bregma) using a Leica CM3050S cryostat (Leica Microsystems, Wetzlar, Germany). Some of the serial sections mounted on conventional glass slides were used for H&E staining to confirm the location of the brain region in the slice. […]
The MALDI-MSI analysis was performed on brain slice specimens sprayed with a matrix solution (40 mg/mL 2,5-dihydroxybenzoic acid) dissolved in 50% methanol using a TM-sprayer (HTX Technologies, Chapel Hill, NC, USA). […] The targeted protonated molecule GM ([M + H]^+: m/z 367.2) was detected in positive ion mode under a laser power setting of 70%, 500 laser shots, and the continuous accumulation of selected ions mode set to ON at m/z 360 ± 50. […] GM intensity detected by the MALDI-MS analysis was visualized using FlexImaging software (Bruker Daltonics).

[3] = set-up: method as in PMID 21442303; conditions: cultured cells; cited from earlier work
[4] = Brain distribution by DESI-MSI analysis after intravenous GM injection; type: in vivo, rat; conditions: for concentration at 0.25 h: rat, intravenous, 5 mg/kg
Method: GM (5 mg/kg) or vehicle (70% DMSO; 0.6 mL/kg) was injected into the tail vein of rats fasted for approximately 16 h. […] Blood samples were centrifuged at 1,700 × g and 4 °C for 15 min to obtain the plasma. The brain of each animal was immediately removed and weighed after blood collection and frozen with liquid nitrogen. The frozen brains were used for making serial sagittal thin sliced sections (thickness 25 μm, coordinate: approximately 3.4 mm lateral from the bregma) using a […][…] cryostat (Leica Microsystems, […], Germany). Some of the serial sections mounted on conventional glass slides were used for H&E staining to confirm the location of the brain region in the slice. In MALDI-MSI analysis, some sections were mounted on indium tin oxide-coated slides ([…]., Osaka, Japan) based on previous reports[35],[36] to obtain higher sensitivity. In […] analysis, some sections were mounted on conventional glass slides. These tissue sections mounted on the slides were dried in a desiccator at room temperature for 10 min for MALDI-MSI analysis or 1 h for […] analysis. In the […] analysis, the MS/MS analysis was further performed to identify the signals of GM or its hydroxylated metabolite. The MS and MS/MS analyses for […] were performed using a Xevo G2-XS Q-Tof system (Waters, Milford, MA, USA) with an Omni Spray Ion Source 2-D (Prosolia, Indianapolis, IN, USA). In both analyses, methanol/water (98:2)solution was flowed into a capillary at a 2 μL/min flow rate. The nebulizing gas pressure was set to 0.4 MPa, the capillary voltage to 5 kV, the source temperature to 100 °C, the sampling cone to 30 V, and the scan time to 0.986 sec. In the MS analysis, the collision energy was set to 4 eV, and mass spectra were acquired in target enhancement mode, which was set to m/z 367.2. In the MS/MS analysis, the collision energy was set to 20 eV, and mass spectra were acquired in target enhancement mode, which was set to m/z 144.2. Mass resolution and spatial resolution were >20,000 and 200 μm in the MS and MS/MS analyses. The protonated ions of GM ([M + H]^+: m/z 367.2) and HM ([M + H]^+: m/z 383.2) in MS and the specific fragment ions of GM (m/z 144.2) and HM (m/z 160.2) in MS/MS were detected in positive ion mode. The intensities of GM and HM detected in the DESI-MS analysis were visualized using high-definition imaging (HDI) software (Waters, Milford, MA, USA). Normal intact brains were homogenized without adding a solvent using a T-10 basic Ultra-Turrax homogenizer (IKA, Staufen, Germany) to prepare a tissue-based calibration curve for quantifying GM. For brain homogenates, various concentrations of standard GM solution (final concentration: 6.25, 12.5, and 25.0 μg/g brain) or vehicle (methanol) as a control were added and rapidly frozen. Frozen sections (thickness 25 μm) of the homogenates spiked with standard GM were made using a […][…] cryostat (Leica Microsystems). Regional intensities of GM (m/z 367.2) and a standard endogenous molecule (m/z 366.95) in brain tissue slices and homogenate slices were evaluated by the region of interest analysis using HDI software (Waters). The GM signal intensity was expressed as the average of the relative intensity ratio to the standard endogenous molecule per […] contained in the region of interest. The regional brain concentration of GM was calculated using the tissue-based calibration curve (Fig. 3D-2).

[5] = Plasma concentrations of GM and HM-1/2 by LC-MS/MS after intravenous GM injection; type: in vivo, rat
Method: GM (5 mg/kg) or vehicle (70% DMSO; 0.6 mL/kg) was injected into the tail vein of rats fasted for approximately 16 h. […] Blood samples were centrifuged at 1,700 × g and 4 °C for 15 min to obtain the plasma. The brain of each animal was immediately removed and weighed after blood collection and frozen with liquid nitrogen. On the day of analysis, frozen plasma from GM-treated rats was thawed at room temperature, and 25 µL of the plasma was mixed with equal volumes of methanol and an IS vincamine (1 ng/mL) and 150 μL of ethyl acetate. To prepare the calibration curve, blank plasma and various concentrations of working solution (final plasma concentration: 0.08–2 µg/mL) were used instead of methanol and GM-treated plasma. The mixture was centrifuged at 7,000 × g and 4 °C for 5 min. The supernatant was dried under a stream of nitrogen gas. The dried residue was dissolved in 60 μL of the initial mobile phase of LC, and then, a 5-μL aliquot was injected into the LC-MS/MS system composed of an Agilent 1290 LC (Agilent Technologies, Santa Clara, CA, USA) and a TripleQuad6500 MS/MS (SCIEX, Framingham, MA, USA) for measuring GM and its hydroxylated forms. The analytical conditions for LC-MS/MS were set according to previously reported methods with minor modifications[10],[15]. The protonated ions ([M + H]^+) of GM (m/z 367.0), HM-1/2 isomers (m/z 383.3), and vincamine (m/z 355.3) in Q1 (the first MS) or their specific fragment ions (GM: m/z 144.1, HM-1/2 isomers: m/z 160.2, vincamine: m/z 337.1) in Q3 (the second MS) were selected and detected by SRM using positive ion mode. Although a qualifier ion was not monitored in their analysis, the specificities of GM, HM-1/2 and vincamine in rat plasma were already confirmed by previous studies[10],[14]. The calibration curve for quantification of plasma GM concentrations was prepared using Analyst software (version 1.6.2, AB SCIEX). The plasma concentrations of HM-1/2 were expressed as relative peak area ratios of vincamine (IS) because there are currently no standard products for measuring these compounds.

normal rat brain slices = test system: normal rat brain slices; set-up: method as in PMID 25456433, PMID 28377723; conditions: [^3H]GM directly exposed to normal rat brain slices; cited from earlier work
[6] = Amygdala, 0.25 h, individual animals
[7] = Cerebellum, 0.25 h, individual animals
[8] = Fourth ventricle, 0.25 h, individual animals
[9] = Frontal lobe, 0.25 h, individual animals
[10] = Hippocampus, 0.25 h, individual animals
[11] = Lateral ventricle, 0.25 h, individual animals
[12] = Occipital lobe, 0.25 h, individual animals
[13] = Striatum, 0.25 h, individual animals
[14] = Thalamus, 0.25 h, individual animals

For CC=C1CN2CCc3c([nH]c4ccccc34)C2CC1C(=COC)C(=O)OC (stereo not shown) [GM, Geissoschizine methyl ether], the tmax [1] is given as 0.5 h, the “GM ion signal in brain, MALDI-MSI image” value [2] is given as “a diffuse GM ion signal was observed throughout the brain parenchyma” and the BBB permeability [3] is given as “comparatively high”. The “GM ion signal in brain, DESI-MSI image” value ([4]; 0.25 h after 5 mg/kg GM i.v., sagittal sections) was “a diffuse GM ion signal was observed throughout the brain parenchyma”, the “Calculated GM concentration” value [4, 6] was 1.0 µg/g and 2.2 µg/g and 1.2 µg/g and the “Ion intensity of GM per pixel in ROI” value [4, 6] was 2.4 ×10^4 and 3.7 ×10^4 and 9.7 ×10^4. The “Ratio of GM/endogenous standard molecule” value [4, 6] was 0.8 and 1.8 and 1.0, the “Calculated GM concentration” value [4, 7] was 0.8 µg/g and 2.0 µg/g and 1.1 µg/g and the “Ion intensity of GM per pixel in ROI” value [4, 7] was 4.2 ×10^4 and 2.4 ×10^4 and 8.7 ×10^4. For the same molecule, the “Ratio of GM/endogenous standard molecule” value [4, 7] was 0.7 and 1.7 and 0.9, the “GM intensity in the parenchyma” value ([4]; DESI-MSI, 1 and 4 h after 5 mg/kg GM i.v.) was “almost disappeared” and the “intracerebroventricular GM intensity” value ([4]; DESI-MSI, 0.25 h, also detected at 1 and 4 h) was “higher than the intensity in other parenchymal areas”. For the same molecule, the “Calculated GM concentration” value [4, 8] was 2.3 µg/g and 2.0 µg/g, the “Ion intensity of GM per pixel in ROI” value [4, 8] was 4.0 ×10^4 and 3.9 ×10^4 and 26.5 ×10^4 and the “Ratio of GM/endogenous standard molecule” value [4, 8] was 1.0 and 1.9 and 1.7. The “Calculated GM concentration” value [4, 9] was 1.0 µg/g and 2.6 µg/g and 1.2 µg/g, the “Ion intensity of GM per pixel in ROI” value [4, 9] was 2.9 ×10^4 and 5.4 ×10^4 and 9.1 ×10^4 and the “Ratio of GM/endogenous standard molecule” value [4, 9] was 0.8 and 2.2 and 1.0. For the same molecule, the “Calculated GM concentration” value [4, 10] was 2.3 µg/g and 1.1 µg/g and 0.8 µg/g, the “Ion intensity of GM per pixel in ROI” value [4, 10] was 4.7 ×10^4 and 10 ×10^4 and 2.0 ×10^4 and the “Ratio of GM/endogenous standard molecule” value [4, 10] was 1.9 and 0.9 and 0.7. For the same molecule, the “Calculated GM concentration” value [4, 11] was 1.4 µg/g and 4.5 µg/g and 2.9 µg/g, the “Ion intensity of GM per pixel in ROI” value [4, 11] was 3.0 ×10^4 and 8.3 ×10^4 and 21.2 ×10^4 and the “Ratio of GM/endogenous standard molecule” value [4, 11] was 1.2 and 3.8 and 2.4. For the same molecule, the “Calculated GM concentration” value [4, 12] was 1.1 µg/g and 2.7 µg/g and 1.3 µg/g, the “Ion intensity of GM per pixel in ROI” value [4, 12] was 2.9 ×10^4 and 4.8 ×10^4 and 10.5 ×10^4 and the “Ratio of GM/endogenous standard molecule” value [4, 12] was 0.9 and 2.3 and 1.1. For the same molecule, the “Calculated GM concentration” value [4, 13] was 0.8 µg/g and 2.6 µg/g and 1.1 µg/g, the “Ion intensity of GM per pixel in ROI” value [4, 13] was 1.9 ×10^4 and 3.9 ×10^4 and 7.2 ×10^4 and the “Ratio of GM/endogenous standard molecule” value [4, 13] was 0.7 and 2.2 and 0.9. For the same molecule, the “Calculated GM concentration” value [4, 14] was 0.7 µg/g and 2.4 µg/g and 1.1 µg/g, the “Ion intensity of GM per pixel in ROI” value [4, 14] was 1.7 ×10^4 and 4.5 ×10^4 and 8.8 ×10^4 and the “Ratio of GM/endogenous standard molecule” value [4, 14] was 0.6 and 2.0 and 0.9. The concentration at 0.25 h ([4]; brain (fourth ventricle), Fourth ventricle, 0.25 h, individual animals, read-out: Calculated GM concentration) was 1200 ng/g, the concentration at 0.25 h ([4]; 0.25 h after 5 mg/kg GM i.v., cerebral cortex, hippocampus, striatum, amygdala, thalamus, cerebellum, lateral ventricle, read-out: regional brain GM concentration range) was 1300 to 2900 ng/g and the “time course of plasma GM concentration” value ([5]; 0.25-4 h after 5 mg/kg GM i.v., rat) was “rapidly decreased in a time-dependent manner over 4 h”. The “plasma concentration relative to maximum concentration after oral YKS” value ([5]; 0.25 h after 5 mg/kg GM i.v. vs maximum concentration 1 h after oral 1 g/kg YKS) was “approximately 500 times”, the distribution volume ([5]; one-compartment analysis, 5 mg/kg GM i.v., rat) was 4.4 L/kg and the concentration at 0.25 h ([5]; plasma, iv, 0.25 h postinjection, 5 mg/kg GM i.v., rat) was 1070 ng/mL. It also gave a half-life ([5]; plasma, iv, one-compartment analysis, 5 mg/kg GM i.v., rat, read-out: apparent elimination half-life (converted)) of 1.8 h, a k el ([5]; plasma, iv, one-compartment analysis, 5 mg/kg GM i.v., rat, read-out: elimination rate constant (converted)) of 0.000111 s⁻¹ and a clearance ([5]; plasma, iv, one-compartment analysis, 5 mg/kg GM i.v., rat, read-out: total clearance (converted)) of 28.3 mL/min/kg. The “binding to brain slices” value (normal rat brain slices) was “specifically bound to various regions appearing on the surface of brain slices”.
